Measured values from ChEMBL document CHEMBL1201862, “PubChem BioAssay data set” (2004).
Activity calls are given as the source filed them.

Legend:
[1] = cells; assay type: functional, cell-based
[2] = target: Nuclear receptor subfamily 0 group B member 1 (Homo sapiens, UniProt P51843); assay type: functional, cell-based;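 also: HEK293T cells transfected with SF-1 and DAX-1 plus StAR promoter luciferase reporter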
[3] = target: Galanin receptor type 3 (Homo sapiens, UniProt O60755); test: Fluorescence-based cell-based primary high throughput dose response assay to identify antagonists of the Galanin Receptor 3 (GalR3).; assay type: functional
Chain of Galanin receptor type 3 (O60755 whole entry): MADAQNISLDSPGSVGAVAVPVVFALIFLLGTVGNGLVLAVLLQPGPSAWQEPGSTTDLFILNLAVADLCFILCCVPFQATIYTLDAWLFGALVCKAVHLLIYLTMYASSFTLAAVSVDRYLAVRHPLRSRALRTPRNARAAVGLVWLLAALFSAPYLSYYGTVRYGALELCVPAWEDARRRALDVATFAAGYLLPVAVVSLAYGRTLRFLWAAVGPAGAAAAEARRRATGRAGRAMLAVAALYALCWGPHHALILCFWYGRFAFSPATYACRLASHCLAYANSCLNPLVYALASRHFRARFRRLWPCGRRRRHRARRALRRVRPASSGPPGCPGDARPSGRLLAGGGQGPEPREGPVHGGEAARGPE

[4] = cells; assay type: functional, cell-based; conditions: HEK-CNG
[5] = tested on: HEK293; test: cells; conditions: Homo sapiens
[6] = tested on: HEK293; test: cells; conditions: Homo sapiens; remark: listed apart in the source
[7] = HEK293 cell cytotoxicity, dose response, cytotoxicity control, ATP luminescence, dry powder, Set6 (AID 743142); assay type: functional, cell-based
[8] = target: Albumin (Bos taurus, UniProt P02769); test: Counterscreen for inhibitors of T-cell receptor (TCR)-CD3 interaction: Fluorescence-based biochemical high throughput dose response assay to identify inhibitors of T-cell receptor (TCR)-CD3 interaction using a TAMRA-labeled BSA probe.; assay type: functional
Chain of Albumin (P02769 whole entry): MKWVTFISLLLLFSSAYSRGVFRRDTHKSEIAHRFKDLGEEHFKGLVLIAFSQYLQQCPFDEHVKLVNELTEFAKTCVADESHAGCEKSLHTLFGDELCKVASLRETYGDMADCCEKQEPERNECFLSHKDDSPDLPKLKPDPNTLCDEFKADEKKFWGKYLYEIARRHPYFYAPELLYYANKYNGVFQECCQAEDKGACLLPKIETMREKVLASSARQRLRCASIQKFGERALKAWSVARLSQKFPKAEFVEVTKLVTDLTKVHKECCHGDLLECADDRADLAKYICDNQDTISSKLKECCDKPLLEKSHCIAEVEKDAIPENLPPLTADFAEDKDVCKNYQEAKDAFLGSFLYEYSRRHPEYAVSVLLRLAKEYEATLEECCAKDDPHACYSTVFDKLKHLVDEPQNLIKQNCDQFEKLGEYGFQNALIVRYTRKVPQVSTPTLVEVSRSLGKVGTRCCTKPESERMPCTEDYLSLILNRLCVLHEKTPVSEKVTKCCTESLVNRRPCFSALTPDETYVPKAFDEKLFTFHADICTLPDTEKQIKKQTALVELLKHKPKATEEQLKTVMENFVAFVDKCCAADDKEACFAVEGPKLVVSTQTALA

[9] = target: Scavenger receptor class B member 1 (Mus musculus, UniProt Q61009); test: inhibitors of SR-BI-mediated HDL uptake, dose response, cell-based, ldlA[mSR-BI] CHO, DiI fluorescence, dry powder, set 10 (AID 624029); assay type: functional
Chain of Scavenger receptor class B member 1 (Q61009 whole entry): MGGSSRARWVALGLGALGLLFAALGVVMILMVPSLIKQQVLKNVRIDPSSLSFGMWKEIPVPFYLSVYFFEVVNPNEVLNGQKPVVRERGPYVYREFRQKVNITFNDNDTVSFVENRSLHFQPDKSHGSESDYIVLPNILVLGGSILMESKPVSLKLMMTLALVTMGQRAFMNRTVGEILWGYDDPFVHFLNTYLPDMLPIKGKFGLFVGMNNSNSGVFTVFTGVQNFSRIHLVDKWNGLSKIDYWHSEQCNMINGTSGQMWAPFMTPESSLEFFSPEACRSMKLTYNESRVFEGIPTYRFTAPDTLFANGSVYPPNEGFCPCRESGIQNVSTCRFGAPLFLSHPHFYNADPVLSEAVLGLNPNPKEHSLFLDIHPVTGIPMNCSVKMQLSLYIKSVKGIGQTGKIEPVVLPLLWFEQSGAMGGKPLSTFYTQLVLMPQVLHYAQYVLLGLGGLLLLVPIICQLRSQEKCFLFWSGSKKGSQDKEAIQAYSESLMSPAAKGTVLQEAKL

Chain of Nuclear receptor subfamily 0 group B member 1 (P51843 whole entry): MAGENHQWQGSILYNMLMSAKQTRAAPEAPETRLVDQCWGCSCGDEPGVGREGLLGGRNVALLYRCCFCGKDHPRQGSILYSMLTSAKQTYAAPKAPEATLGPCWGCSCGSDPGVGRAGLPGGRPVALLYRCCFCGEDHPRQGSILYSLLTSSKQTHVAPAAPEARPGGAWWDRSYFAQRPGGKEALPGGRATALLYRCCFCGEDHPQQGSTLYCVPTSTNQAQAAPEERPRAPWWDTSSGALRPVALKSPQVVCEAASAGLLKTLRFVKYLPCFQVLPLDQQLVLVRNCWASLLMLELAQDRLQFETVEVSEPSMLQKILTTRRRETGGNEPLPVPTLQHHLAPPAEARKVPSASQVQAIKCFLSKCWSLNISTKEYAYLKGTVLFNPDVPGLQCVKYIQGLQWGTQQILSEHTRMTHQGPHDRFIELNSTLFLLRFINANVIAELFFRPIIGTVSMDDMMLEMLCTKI

O=C1c2ccccc2C(=O)N1CCOc1ccccc1Br
IC50 [1]: > 67.5 µM (inactive)
IC50 [2]: > 67.5 µM (inactive)

CCc1nc2sc(C#N)c(N)c2c2c1CCCC2
IC50 [3]: > 3.32 µM (active)
EC50 [4]: > 29.9 µM (inactive)
EC50 [5]: > 59.6 µM (inactive)
EC50 [6]: > 59.6 µM (inactive)

O=C(CCNC(=O)c1ccc(F)cc1)N[C@@H]1CCCc2ccccc21
AC50 [7]: 16.5 µM (active)

O=C(NNC(=O)c1cc2ccccc2cc1O)Nc1ccc(F)cc1F
IC50 [8]: > 94.1 µM (inactive)

CC(C)NC(=O)Nc1ccc2c(c1)C(=O)N([C@H](C)CO)C[C@@H](C)[C@@H](CN(C)S(=O)(=O)c1ccc(Cl)cc1)O2
AC50 [9]: 39.9 µM (active)
